Experimental data: US20250098679A1, “HERBICIDAL PYRIDONE DERIVATIVES” (SYNGENTA CROP PROTECTION AG, priority 2021, published 2025)

What was measured:
Assay type in all cases: in vivo
Settings in all cases: evaluated after 13 days
[1] = system: Setaria faberi (SETFA); experiment: Pre-emergence Test, Setaria faberi (SETFA)
[2] = system: Echinochloa crus-galli (ECHCG); experiment: Pre-emergence Test, Echinochloa crus-galli (ECHCG)
[3] = system: Zea mays (ZEAMX); experiment: Pre-emergence Test, Zea mays (ZEAMX)
[4] = system: Ipomoea hederacea (IPOHE); experiment: Pre-emergence Test, Ipomoea hederacea (IPOHE)
[5] = system: Amaranthus palmeri (AMAPA); experiment: Pre-emergence Test, Amaranthus palmeri (AMAPA)
[6] = system: Amaranthus retoflexus (AMARE); experiment: Pre-emergence Test, Amaranthus retoflexus (AMARE)
[7] = system: Setaria faberi (SETFA); experiment: Post-emergence Test, Setaria faberi (SETFA); set-up: key to percentage damage caused to the plant, SETFA (five-point scale): 5=81-100%, 4=61-80%, 3=41-60%, 2=21-40%, 1=0-20% damage
Procedure, shortened: (§1)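 Scores are percentage plant damage on a 1–5 scale (1=0-20%, 2=21-40%, 3=41-60%, 4=61-80%, 5=81-100%), read 13 days after treatment. Pots received a spray at 1000 g/ha unless otherwise stated, formulated in acetone/water (50:50) containing 0.5% Tween 20.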

[8] = system: Echinochloa crus-galli (ECHCG); experiment: Post-emergence Test, Echinochloa crus-galli (ECHCG); set-up: key to percentage damage caused to the plant, ECHCG (five-point scale): 5=81-100%, 4=61-80%, 3=41-60%, 2=21-40%, 1=0-20% damage
Procedure, shortened: as §1

[9] = system: Zea mays (ZEAMX); experiment: Post-emergence Test, Zea mays (ZEAMX); set-up: key to percentage damage caused to the plant, ZEAMX (five-point scale): 5=81-100%, 4=61-80%, 3=41-60%, 2=21-40%, 1=0-20% damage
Procedure, shortened: as §1

[10] = system: Ipomoea hederacea (IPOHE); experiment: Post-emergence Test, Ipomoea hederacea (IPOHE); set-up: key to percentage damage caused to the plant, IPOHE (five-point scale): 5=81-100%, 4=61-80%, 3=41-60%, 2=21-40%, 1=0-20% damage
Procedure, shortened: as §1

[11] = system: Amaranthus palmeri (AMAPA); experiment: Post-emergence Test, Amaranthus palmeri (AMAPA); set-up: key: 5=81-100%, 4=61-80%, 3=41-60%, 2=21-40%, 1=0-20% damage
Procedure, shortened: as §1

[12] = system: Amaranthus retoflexus (AMARE); experiment: Post-emergence Test, Amaranthus retoflexus (AMARE); set-up: key to percentage damage caused to the plant, AMARE (five-point scale): 5=81-100%, 4=61-80%, 3=41-60%, 2=21-40%, 1=0-20% damage
Procedure, shortened: as §1

| SMILES | Pre-emergence Test SETFA, percentage damage caused to the plant (five-point scale) ([1]; 250 g/Ha (*)) | Pre-emergence Test SETFA, percentage damage caused to the plant (five-point scale) ([1]; 1000 g/ha) | Pre-emergence Test ECHCG, percentage damage caused to the plant (five-point scale) ([2]; 250 g/Ha (*)) | Pre-emergence Test ECHCG, percentage damage caused to the plant (five-point scale) ([2]; 1000 g/ha) | Pre-emergence Test ZEAMX, percentage damage caused to the plant (five-point scale) ([3]; 1000 g/ha) | Pre-emergence Test IPOHE, percentage damage caused to the plant (five-point scale) ([4]; 1000 g/ha) | Pre-emergence Test AMAPA, percentage damage caused to the plant (five-point scale) ([5]; 1000 g/ha) | Pre-emergence Test AMARE, percentage damage caused to the plant (five-point scale) ([6]; 1000 g/ha) | percentage damage caused to the plant, SETFA (five-point scale) ([7]; 250 g/Ha) | percentage damage caused to the plant, SETFA (five-point scale) ([7]; 1000 g/ha) | percentage damage caused to the plant, ECHCG (five-point scale) ([8]; 250 g/Ha) | percentage damage caused to the plant, ECHCG (five-point scale) ([8]; 1000 g/ha) | percentage damage caused to the plant, ZEAMX (five-point scale) ([9]; 250 g/Ha) | percentage damage caused to the plant, ZEAMX (five-point scale) ([9]; 1000 g/ha) | percentage damage caused to the plant, IPOHE (five-point scale) ([10]; 250 g/Ha) | percentage damage caused to the plant, IPOHE (five-point scale) ([10]; 1000 g/ha) | percentage damage caused to the plant, AMAPA (five-point scale) ([11]; 250 g/Ha) | percentage damage caused to the plant, AMAPA (five-point scale) ([11]; 1000 g/ha) | percentage damage caused to the plant, AMARE (five-point scale) ([12]; 250 g/Ha) | percentage damage caused to the plant, AMARE (five-point scale) ([12]; 1000 g/ha) | other results |
| --- | --- | --- | --- | --- | --- | --- | --- | --- | --- | --- | --- | --- | --- | --- | --- | --- | --- | --- | --- | --- | --- |
| CCn1c(Cn2cc3c(n2)COC3)cc(=O)c(C(=O)O)c1-c1ccc(Cl)c(Cl)c1 [Compound 92, 2-(3,4-dichlorophenyl)-6-(4,6-dihydrofuro[3,4-c]pyrazol-2-ylmethyl)-1-ethyl-4-oxo-pyridine-3-carboxylic acid] | 3 (3=41-60%) | 4 (4=61-80%) | 3 (3=41-60%) | 4 (4=61-80%) | 0 | 2 (2=21-40%) | 2 (2=21-40%) | 0 | 3 (3=41-60%) | 3 (3=41-60%) | 3 (3=41-60%) | 4 (4=61-80%) | 2 (2=21-40%) | 2 (2=21-40%) | 3 (3=41-60%) | 3 (3=41-60%) | 2 (2=21-40%) | 2 (2=21-40%) | 2 (2=21-40%) | 2 (2=21-40%) | Pre-emergence Test ZEAMX, percentage damage caused to the plant (five-point scale) ([3]; 250 g/Ha (*)): 0; Pre-emergence Test IPOHE, percentage damage caused to the plant (five-point scale) ([4]; 250 g/Ha (*)): 3 (3=41-60%); Pre-emergence Test AMAPA, percentage damage caused to the plant (five-point scale) ([5]; 250 g/Ha (*)): 1 (1=0-20%); Pre-emergence Test AMARE, percentage damage caused to the plant (five-point scale) ([6]; 250 g/Ha (*)): 0 |
| CCn1c(Cn2cncn2)cc(=O)c(C(=O)O)c1-c1ccc(Cl)c(Cl)c1 [Compound 49, 2-(3,4-dichlorophenyl)-1-ethyl-4-oxo-6-(1,2,4-triazol-1-ylmethyl)pyridine-3-carboxylic acid] |  | 0 |  | 1 (1=0-20%) | 0 | 0 | 1 (1=0-20%) | 2 (2=21-40%) | 1 (1=0-20%) | 2 (2=21-40%) | 0 | 2 (2=21-40%) | 0 | 0 | 1 (1=0-20%) | 0 | 0 | 1 (1=0-20%) | 0 | 0 |  |
| CCn1c(Cn2nc(C(F)(F)F)cc2C)cc(=O)c(C(=O)O)c1-c1ccc(Cl)c(Cl)c1 [Compound 13a, 2-(3,4-dichlorophenyl)-1-ethyl-6-[[5-methyl-3-(trifluoromethyl)pyrazol-1-yl]methyl]-4-oxo-pyridine-3-carboxylic acid] | 2 (2=21-40%) | 4 (4=61-80%) | 2 (2=21-40%) | 3 (3=41-60%) | 0 | 0 | 0 | 0 | 3 (3=41-60%) | 4 (4=61-80%) | 2 (2=21-40%) | 4 (4=61-80%) | 0 | 3 (3=41-60%) | 3 (3=41-60%) | 2 (2=21-40%) | 0 | 2 (2=21-40%) | 1 (1=0-20%) | 0 | Pre-emergence Test ZEAMX, percentage damage caused to the plant (five-point scale) ([3]; 250 g/Ha (*)): 0; Pre-emergence Test IPOHE, percentage damage caused to the plant (five-point scale) ([4]; 250 g/Ha (*)): 0; Pre-emergence Test AMAPA, percentage damage caused to the plant (five-point scale) ([5]; 250 g/Ha (*)): 1 (1=0-20%); Pre-emergence Test AMARE, percentage damage caused to the plant (five-point scale) ([6]; 250 g/Ha (*)): 0 |
| CCn1c(Cn2cnc(C(F)(F)F)n2)cc(=O)c(C(=O)O)c1-c1ccc(Cl)c(Cl)c1 [Compound 7, 2-(3,4-dichlorophenyl)-1-ethyl-4-oxo-6-[[3-(trifluoromethyl)-1,2,4-triazol-1-yl]methyl]pyridine-3-carboxylic acid] |  | 3 (3=41-60%) |  | 3 (3=41-60%) | 1 (1=0-20%) | 0 | 0 | 0 |  | 4 (4=61-80%) |  | 2 (2=21-40%) |  | 1 (1=0-20%) |  | 1 (1=0-20%) |  | 1 (1=0-20%) |  | 1 (1=0-20%) |  |
